Read-outs that look alike come from different tables or passages of the source.
Experiments:
[1] = biological target: T1, HCV NS3/4A protease complex (H77C strain, 1a genotype) (Hepatitis C virus genotype 1a, UniProt P27958, C1454S); experiment: Recombinant HCV NS3/4A protease complex FRET peptide assay, H77C strain; assay type: biochemical
T1 construct: DNA encoding the recombinant HCV NS3/4A protease complex (amino acids 1027 to 1711) for these strains; inferred from the pET21b vector and Ni-NTA purification; made in house; host or cells: Escherichia coli BL21 (DE3), pET21b
Excerpt: The purpose of this in vitro assay was to measure the inhibition of HCV NS3 protease complexes, derived from the BMS, H77C or J416S strains, as described below, by compounds of the present invention.
Serum from an HCV-infected patient was obtained from Dr. T. Wright, San Francisco Hospital. An engineered full-length cDNA (compliment deoxyribonucleic acid) template of the HCV genome (BMS strain) was constructed from DNA fragments obtained by reverse transcription-PCR (RT-PCR) of serum RNA (ribonucleic acid) and using primers selected on the basis of homology between other genotype 1a strains. […] The infectious clones, H77C (1a genotype) and J4L6S (1b genotype) were obtained from R. Purcell (NIH) and the sequences are published in Genbank (AAB67036, see Yanagi,M., Purcell,R. H., Emerson,S. U. and Bukh,J. Proc. Natl. Acad. Sci. U.S.A. 94(16),8738-8743 (1997); AF054247, see Yanagi,M., St Claire,M., Shapiro,M., Emerson,S. U., Purcell,R. H. and Bukh,J, Virology 244 (1), 161-172. (1998)).
The BMS, H77C and J4L6S strains were used for production of recombinant NS3/4A protease complexes. DNA encoding the recombinant HCV NS3/4A protease complex (amino acids 1027 to 1711) for these strains were manipulated as described by P. Gallinari et al. (see Gallinari P, Paolini C, Brennan D, Nardi C, Steinkuhler C, De Francesco R. Biochemistry. 38(17):5620-32, (1999)). […]

[2] = tested on: HCV replicon in Huh7 cells; experiment: HCV replicon cell-based assay (FRET); conditions: Hepatitis C virus
How it was run: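 Huh7 cells stably carrying a genotype 1b HCV replicon (IRES-neo-EMCV-IRES-NS3-NS5B) were treated with compound for 4 days at 37 °C in 0.5% DMSO final. Lysates containing 10 μM FRET peptide RET S1 were read kinetically at 340/490 nm to give NS3 protease activity, from which EC50 was derived.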

T1 sequence (P27958 1027-1657 C1454S): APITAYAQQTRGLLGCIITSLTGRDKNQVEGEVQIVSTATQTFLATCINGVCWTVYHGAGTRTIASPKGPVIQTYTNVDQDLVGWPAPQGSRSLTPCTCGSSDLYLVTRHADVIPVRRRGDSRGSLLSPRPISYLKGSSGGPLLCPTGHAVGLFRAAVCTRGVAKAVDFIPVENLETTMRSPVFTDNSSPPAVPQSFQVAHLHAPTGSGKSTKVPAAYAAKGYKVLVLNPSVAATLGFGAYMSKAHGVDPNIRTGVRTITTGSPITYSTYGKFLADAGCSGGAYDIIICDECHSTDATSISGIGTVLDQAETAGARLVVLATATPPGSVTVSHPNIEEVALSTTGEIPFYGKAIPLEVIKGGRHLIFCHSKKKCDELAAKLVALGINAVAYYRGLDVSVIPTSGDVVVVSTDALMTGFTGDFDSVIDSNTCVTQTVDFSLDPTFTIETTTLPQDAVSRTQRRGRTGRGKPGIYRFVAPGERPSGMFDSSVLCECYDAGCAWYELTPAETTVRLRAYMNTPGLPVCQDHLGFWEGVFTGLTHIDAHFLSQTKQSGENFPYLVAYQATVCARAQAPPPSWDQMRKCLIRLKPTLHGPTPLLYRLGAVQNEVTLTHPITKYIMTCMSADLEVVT
T1 sequence (P27958 1658-1714 partner, looked up, stated change not applied): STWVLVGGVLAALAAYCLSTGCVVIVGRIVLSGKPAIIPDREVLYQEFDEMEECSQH

C=CC1C[C@]1(NC(=O)[C@@H]1C[C@@H](Oc2cc(-c3ccccc3)nc3cc(OC)ccc23)CN1C(=O)[C@@H](NC(=O)OC(C)(C)C)C(C)(C)C)C(=O)NS(=O)(=O)C1(C)CC1 (stereo in doubt) [Compound 1, (1-{4-(7-Methoxy-2-phenylquinolin-4-yloxy)-2-[1-(1-methylcyclopropanesulfonylaminocarbonyl)-2-vinylcyclopropylcarbamoyl]pyrrolidine-1-carbonyl}-2,2-dimethylpropyl)carbamic acid tert-butyl ester]
IC50 [1]: 1.2 nM | EC50 ([2]; Huh-7, 96 h, Huh7 cells, 4 days, read-out: EC50 value in the replicon assay): 13.9 nM | EC50 ([2]; Huh-7, HCV replicon, read-out: EC50 range): < 50 nM

— patent US6878722B2, “Substituted cycloalkyl P1′ hepatitis C virus inhibitors” (Bristol-Myers Squibb Company, priority 2002, dated 2005)
